Assays:
Assay in all cases: relative viability (nuclei count vs DMSO), 5 days (fraction); higher = more cells survive
[1] = system: BEN
Outline: (§1)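 Values are medians from duplicate plates. Each reflects relative viability, defined as the nuclei count of treated wells over that of vehicle wells. Lung cancer cell lines in 1536-well plates were pin-tool dosed one day after seeding with one drug alone or with a fixed anchor-drug dose plus five library-drug doses (not always all listed) in √10 steps, then fixed, stained and imaged at 4× after 5 days.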

[2] = system: EKVX
Outline: as §1

[3] = system: HARA
Outline: as §1

[4] = system: HCC-366
Outline: as §1

[5] = system: HCC-827
Outline: as §1

[6] = system: LC-2-ad
Outline: as §1

[7] = system: LOU-NH91
Outline: as §1

[8] = system: NCI-H1355
Outline: as §1

[9] = system: NCI-H1395
Outline: as §1

[10] = system: NCI-H1437
Outline: as §1

[11] = system: NCI-H1734
Outline: as §1

[12] = system: NCI-H1792
Outline: as §1

[13] = system: NCI-H2009
Outline: as §1

[14] = system: NCI-H2087
Outline: as §1

[15] = system: NCI-H2170
Outline: as §1

[16] = system: NCI-H2228
Outline: as §1

[17] = system: NCI-H2342
Outline: as §1

[18] = system: NCI-H2405
Outline: as §1

[19] = system: NCI-H596
Outline: as §1

[20] = system: NCI-H647
Outline: as §1

[21] = system: NCI-H661
Outline: as §1

[22] = system: SK-LU-1
Outline: as §1

[23] = system: SK-MES-1
Outline: as §1

CC(C)Oc1cc(Nc2nc(N[C@@H](C)c3ccc(F)cn3)ncc2Cl)n[nH]1 [AZ23] + Cc1nc(Nc2ncc(C(=O)Nc3c(C)cccc3Cl)s2)cc(N2CCN(CCO)CC2)n1 [Dasatinib] (partner 0.075 µM) gave a relative viability ([1]; first compound 0.01 µM) of 0.309, a relative viability ([1]; first compound 0.03162 µM) of 0.398 and a relative viability ([1]; first compound 0.3162 µM) of 0.304. The relative viability ([2]; first compound 0.01 µM) was 0.503, the relative viability ([2]; first compound 0.03162 µM) was 0.551 and the relative viability ([2]; first compound 0.3162 µM) was 0.48. For the same compound, the relative viability ([3]; first compound 0.03162 µM) was 0.37, the relative viability ([3]; first compound 0.3162 µM) was 0.217 and the relative viability ([4]; first compound 0.01 µM) was 0.58. For the same compound, the relative viability ([4]; first compound 0.03162 µM) was 0.705, the relative viability ([4]; first compound 0.3162 µM) was 0.79 and the relative viability ([5]; first compound 0.01 µM) was 0.301. The relative viability ([5]; first compound 0.03162 µM) was 0.288, the relative viability ([5]; first compound 0.3162 µM) was 0.282 and the relative viability ([6]; first compound 0.01 µM) was 0.569. For the same compound, the relative viability ([6]; first compound 0.03162 µM) was 0.588, the relative viability ([6]; first compound 0.3162 µM) was 0.564 and the relative viability ([7]; first compound 0.01 µM) was 0.565. For the same compound, the relative viability ([7]; first compound 0.03162 µM) was 0.589, the relative viability ([7]; first compound 0.3162 µM) was 0.551 and the relative viability ([8]; first compound 0.01 µM) was 0.793. For the same compound, the relative viability ([8]; first compound 0.03162 µM) was 0.833, the relative viability ([8]; first compound 0.3162 µM) was 0.633 and the relative viability ([9]; first compound 0.03162 µM) was 0.481. It also gave a relative viability ([9]; first compound 0.3162 µM) of 0.359, a relative viability ([10]; first compound 0.01 µM) of 0.354 and a relative viability ([10]; first compound 0.03162 µM) of 0.443. The relative viability ([10]; first compound 0.3162 µM) was 0.418, the relative viability ([11]; first compound 0.01 µM) was 0.445 and the relative viability ([11]; first compound 0.03162 µM) was 0.454. The relative viability ([11]; first compound 0.3162 µM) was 0.448, the relative viability ([12]; first compound 0.01 µM) was 0.804 and the relative viability ([12]; first compound 0.03162 µM) was 1.16. For the same compound, the relative viability ([12]; first compound 0.3162 µM) was 0.672, the relative viability ([13]; first compound 0.01 µM) was 0.278 and the relative viability ([13]; first compound 0.03162 µM) was 0.341. For the same compound, the relative viability ([13]; first compound 0.3162 µM) was 0.279, the relative viability ([14]; first compound 0.01 µM) was 1.29 and the relative viability ([14]; first compound 0.03162 µM) was 1.04. The relative viability ([14]; first compound 0.3162 µM) was 0.751, the relative viability ([15]; first compound 0.01 µM) was 0.498 and the relative viability ([15]; first compound 0.03162 µM) was 0.618. The relative viability ([15]; first compound 0.3162 µM) was 0.598, the relative viability ([16]; first compound 0.01 µM) was 0.571 and the relative viability ([16]; first compound 0.03162 µM) was 0.504. The relative viability ([16]; first compound 0.3162 µM) was 0.445, the relative viability ([17]; first compound 0.01 µM) was 0.299 and the relative viability ([17]; first compound 0.03162 µM) was 0.31. The relative viability ([17]; first compound 0.3162 µM) was 0.339, the relative viability ([18]; first compound 0.01 µM) was 0.225 and the relative viability ([18]; first compound 0.03162 µM) was 0.23. The relative viability ([18]; first compound 0.3162 µM) was 0.215, the relative viability ([19]; first compound 0.01 µM) was 0.52 and the relative viability ([19]; first compound 0.03162 µM) was 0.616. The relative viability ([19]; first compound 0.3162 µM) was 0.557, the relative viability ([20]; first compound 0.01 µM) was 0.174 and the relative viability ([20]; first compound 0.03162 µM) was 0.215. The relative viability ([20]; first compound 0.3162 µM) was 0.17, the relative viability ([21]; first compound 0.01 µM) was 0.948 and the relative viability ([21]; first compound 0.03162 µM) was 1.02. The relative viability ([21]; first compound 0.3162 µM) was 0.847, the relative viability ([22]; first compound 0.03162 µM) was 0.193 and the relative viability ([22]; first compound 0.3162 µM) was 0.152. For the same compound, the relative viability ([23]; first compound 0.03162 µM) was 0.275 and the relative viability ([23]; first compound 0.3162 µM) was 0.288.

— the supplement of paper PMC10307832
